Reference: US12172959B2, “Mono- or di-substituted indole derivatives as dengue viral replication inhibitors” (priority 2015, dated 2024)

Tests used:
[1] = system: DENV-1 strain Djibouti strain (D1/H/IMTSSA/98/606); test: Tetravalent RT-qPCR assay Protocol B, serotype 1; assay type: cell-based; conditions: Dengue virus, DENV1, 168 h, RT-qPCR serotype 1 Djibouti, 7 days
Experimental: The antiviral activity of the compounds of the invention was tested against DENV-1 strain Djibouti strain (D1/H/IMTSSA/98/606; Table 6), DENV-2 strain NGC (Table 7), DENV-3 strain H87 (Table 8) and DENV-4 strain SG/06K2270DK1/2005 (Table 9B) in a RT-qPCR assay. Vero-B or Vero-M cells (5×10^4) were seeded in 96-well plates. One day later, culture medium was replaced with 100 μL assay medium containing a 2×, 3× or 5× serial dilution of the compound (concentration range: 50 μg/mL-0.00038 μg/mL, 50 μg/mL-0.0076 μg/mL, and 50 μg/mL-0.00013 μg/mL, respectively) and 100 μL of dengue virus inoculum (DENV). Following a 2 hour incubation period, the cell monolayer was washed 3 times with assay medium to remove residual, non-adsorbed virus and cultures were further incubated for either 4 days (DENV-2 NGC) or 7 days (DENV-1 Djibouti strain D1/H/IMTSSA/98/606, DENV-3 strain H87 prototype, DENV-4 strain H241, and DENV-4 strain EDEN) in the presence of the inhibitor. Supernatant was harvested and viral RNA load was determined by real-time quantitative RT-PCR. The 50% effective concentration (EC50), which is defined as the compound concentration that is required to inhibit viral RNA replication by 50%, was determined using logarithmic interpolation.
RNA was isolated from 100 μL (or in some circumstances 150 μL) supernatant with the NucleoSpin 96 Virus kit (Filter Service, Duren, Germany) as described by the manufacturer. The sequences of the TaqMan primers (DENV-For, DENV-Rev; Table 5) and TaqMan probes (DENV-Probe Table 5) were selected from non-structural gene 3 (NS3) or NS5, of the respective flaviviruses using Primer Express software (version 2.0; Applied Biosystems, Lennik, Belgium). The TaqMan probe was fluorescently labelled with 6-carboxyfluorescein (FAM) at the 5′ end as the reporter dye, and with minor groove binder (MGB) at the 3′ end as the quencher (Table 5). One-step, quantitative RT-PCR was performed in a total volume of 25 μL, containing 13.9375 μL H2O, 6.25 μL master mix (Eurogentec, Seraing, Belgium), 0.375 μL forward primer, 0.375 μL reverse primer, 1 μL probe, 0.0625 μL reverse transcriptase (Eurogentec) and 3 μL sample. RT-PCR was performed using the ABI 7500 Fast Real-Time PCR System (Applied Biosystems, Branchburg, New Jersey, USA) using the following conditions: 30 min at 48° C. and 10 min at 95° C., followed by 40 cycles of 15 s at 95° C. and 1 min at 60° C. The data was analyzed using the ABI PRISM 7500 SDS software (version 1.3.1; Applied Biosystems). For absolute quantification, standard curves were generated using 10-fold dilutions of template preparations of known concentrations.

[2] = Chiral stability at pH 7.4 (enantiomeric excess by Chiral SFC after incubation); assay type: physicochemical; conditions: 5 μM
Experimental: The chiral stability of Enantiomer 1A (R=OMe) was evaluated by determination of the enantiomeric excess (ee %) after incubation for 24 h and 48 h in a buffered solution at pH 7.4 at 40° C. and 60° C. To assess the influence of the methoxy-substituent of Enantiomer 1A (R=OMe) on the stability against racemization, the chiral stability of Enantiomer 1′A (R=H) was tested under the same conditions. To this end, 5 μM buffered (pH=7.4) solutions of 1A and 1′A were prepared by mixing 25 μL of a 100 μM solution of 1A or 1′A in DMSO with 475 μL aqueous buffer pH 7.4. Samples were taken 24 h and 48 h after incubation at 40° C. and 60° C. The analytical samples were analyzed by Chiral SFC (MS detection) and the chiral purity was expressed as the enantiomeric excess (ee %=% enantiomer A−% enantiomer B).

DENV-2 16681 strain = test: DENV-2 antiviral assay (eGFP fluorescence, Vero cells); assay type: cell-based, Dengue virus; conditions: DENV-2 16681 eGFP, MOI 0.5, 3 days
In short: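 eGFP-labelled DENV-2 16681 infected Vero cells (2500/well, MEM + 2% FCS) at MOI 0.5, one day after seeding onto 9-step 5-fold compound dilutions. After 3 days at 37 °C, eGFP fluorescence read at 488 nm; % inhibition normalised to virus and cell controls, EC50 by linear interpolation.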

Structure (SMILES): COc1cc(NC(C(=O)c2c[nH]c3cc(F)ccc23)c2ccc(Cl)cc2OC)cc(S(C)(=O)=O)c1 (single isomer, unassigned) [Compound 1A, 2-(4-chloro-2-methoxyphenyl)-1-(6-fluoro-1H-indol-3-yl)-2-((3-methoxy-5-(methylsulfonyl)phenyl)amino)ethanone]
- EC50 [1]: < 15 nM
- ee % ([2]; buffered solution pH 7.4, 40° C., 24 h): 100%
- ee % ([2]; buffered solution pH 7.4, 40° C., 48 h): 100%
- ee % ([2]; buffered solution pH 7.4, 60° C., 24 h): 95%
- ee % ([2]; buffered solution pH 7.4, 60° C., 48 h): 88%
- EC50 (DENV-2 16681 strain): 0.26 nM

Structure (SMILES): COc1cc(NC(C(=O)c2c[nH]c3c(C)c(F)ccc23)c2ccc(Cl)cc2OC)cc(S(C)(=O)=O)c1 (single isomer, unassigned) [Compound 2A, 2-(4-chloro-2-methoxyphenyl)-1-(6-fluoro-7-methyl-1H-indol-3-yl)-2-((3-methoxy-5-(methylsulfonyl)phenyl)amino)ethanone]
- EC50 [1]: < 14 nM
- EC50 (DENV-2 16681 strain): 0.26 nM

Structure (SMILES): COc1cc(NC(C(=O)c2c[nH]c3cc(OC)c(C)cc23)c2ccc(Cl)cc2OC)cc(S(C)(=O)=O)c1 (single isomer, unassigned) [Compound 4A, 2-(4-chloro-2-methoxyphenyl)-2-((3-methoxy-5-(methyl-sulfonyl)phenyl)amino)-1-(6-methoxy-5-methyl-1H-indol-3-yl)ethanone]
- EC50 [1]: < 14 nM
- EC50 (DENV-2 16681 strain): 0.27 nM

Structure (SMILES): COc1cc(NC(C(=O)c2c[nH]c3cc(OC)c(F)cc23)c2ccc(Cl)cc2OC)cc(S(C)(=O)=O)c1 (single isomer, unassigned) [Compound 5A, 2-(4-chloro-2-methoxyphenyl)-1-(5-fluoro-6-methoxy-1H-indol-3-yl)-2-((3-methoxy-5-(methylsulfonyl)phenyl)amino)ethanone]
- EC50 [1]: < 14 nM
- EC50 (DENV-2 16681 strain): 0.41 nM

Structure (SMILES): COc1cc(NC(C(=O)c2c[nH]c3c(C)c(OC)ccc23)c2ccc(Cl)cc2OC)cc(S(C)(=O)=O)c1 (single isomer, unassigned) [Compound 6A, 2-(4-chloro-2-methoxyphenyl)-2-((3-methoxy-5-(methyl-sulfonyl)phenyl)amino)-1-(6-methoxy-7-methyl-1H-indol-3-yl)ethanone]
- EC50 [1]: < 14 nM
- EC50 (DENV-2 16681 strain): 0.068 nM
